# Measurements as given in ChEMBL document CHEMBL3588832, “The biology and synthesis of α-hydroxytropolones” (Medchemcomm, 2014).
# Tests used:
# [1] = Inhibition of HIV integrase 3' processing activity; design: species or system Human immunodeficiency virus
# [2] = Inhibition of HIV integrase strand transfer activity; design: species or system Human immunodeficiency virus
# [3] = Inhibition of HIV reverse transcriptase polymerase; design: species or system Human immunodeficiency virus
# [4] = Inhibition of HIV reverse transcriptase RNase H; design: species or system Human immunodeficiency virus
# [5] = Antifungal activity against Phellinus weirii; assay type: functional
# [6] = Antifungal activity against Stereum sanguinolentum; assay type: functional
# [7] = Antifungal activity against Polyporus versicolor; assay type: functional
# Poria = experiment: Antifungal activity against Poria monticola; assay type: functional
# Coniophora puteana = experiment: Antifungal activity against Coniophora puteana; assay type: functional
# [8] = Inhibition of XMRV RNaseH; design: species or system Xenotropic MuLV-related virus
# [9] = Inhibition of HIV1 reverse transcriptase RNase H; design: species or system Human immunodeficiency virus 1
# [10] = Toxicity in mouse assessed as induction of mortality after 72 hrs; assay type: organism-based; conditions: in vivo
# [11] = Inhibition of Escherichia coli ribonuclease H
# [12] = Inhibition of hepatitis B virus genotype D RNaseH
# [13] = Inhibition of hepatitis B virus genotype H RNaseH
# [14] = Toxicity in mouse assessed as induction of mortality after 48 hrs; assay type: organism-based; conditions: in vivo
# Escherichia coli [15] = experiment: Inhibition of Escherichia coli W677/JR76.2 2'-O-adenylyltransferase at 7.3 uM using aminoglycoside and [14C]ATP incubated for 15 mins by liquid scintillation counting based radiochemical assay
# Escherichia coli [16] = experiment: Inhibition of Escherichia coli W677/JR76.2 2'-O-adenylyltransferase at 730 uM using aminoglycoside and [14C]ATP incubated for 15 mins by liquid scintillation counting based radiochemical assay
# [17] = Inhibition of human ribonuclease H
# Hepatitis B virus [18] = experiment: Antiviral activity against HBV assessed as inhibition of viral replication in cell based assay; assay type: functional, organism-based
# [19] = Inhibition of HIV2 reverse transcriptase RNase H; design: species or system Human immunodeficiency virus 2
# Plasmodium falciparum [20] = experiment: Antimalarial activity against Plasmodium falciparum FCR-3/Gambia; assay type: functional, organism-based
# Escherichia coli [21] = experiment: Antibacterial activity against Escherichia coli NIHJ; assay type: functional
# Klebsiella pneumoniae = experiment: Antibacterial activity against Klebsiella pneumoniae; assay type: functional
# Pseudomonas aeruginosa = experiment: Antibacterial activity against Pseudomonas aeruginosa; assay type: functional
# Micrococcus luteus = experiment: Antibacterial activity against Micrococcus luteus; assay type: functional
# Escherichia coli [22] = experiment: Inhibition of Escherichia coli W677/JR76.2 2'-O-adenylyltransferase at 550 uM using aminoglycoside and [14C]ATP incubated for 15 mins by liquid scintillation counting based radiochemical assay
# Aspergillus fumigatus = experiment: Antifungal activity against Aspergillus fumigatus IAM2350; assay type: functional
# [23] = Inhibition of phosphotidylcholine-preferring phospholipase C (unknown origin) at pH 7.3; design: species or system Homo sapiens
# Escherichia coli [24] = experiment: Inhibition of Escherichia coli W677/JR76.2 2'-O-adenylyltransferase at 5.5 uM using aminoglycoside and [14C]ATP incubated for 15 mins by liquid scintillation counting based radiochemical assay
# MRC5 = experiment: Cytotoxicity against human MRC5 cells; assay type: functional, cell-based
# [25] = Inhibition of phosphotidylcholine-preferring phospholipase C (unknown origin) at pH 9.5; design: species or system Homo sapiens
# [26] = target: T1, Dopamine beta-hydroxylase (Homo sapiens, UniProt P09172); experiment: Inhibition of dopamine beta-oxygenase (unknown origin)
# T1 sequence (P09172 whole entry): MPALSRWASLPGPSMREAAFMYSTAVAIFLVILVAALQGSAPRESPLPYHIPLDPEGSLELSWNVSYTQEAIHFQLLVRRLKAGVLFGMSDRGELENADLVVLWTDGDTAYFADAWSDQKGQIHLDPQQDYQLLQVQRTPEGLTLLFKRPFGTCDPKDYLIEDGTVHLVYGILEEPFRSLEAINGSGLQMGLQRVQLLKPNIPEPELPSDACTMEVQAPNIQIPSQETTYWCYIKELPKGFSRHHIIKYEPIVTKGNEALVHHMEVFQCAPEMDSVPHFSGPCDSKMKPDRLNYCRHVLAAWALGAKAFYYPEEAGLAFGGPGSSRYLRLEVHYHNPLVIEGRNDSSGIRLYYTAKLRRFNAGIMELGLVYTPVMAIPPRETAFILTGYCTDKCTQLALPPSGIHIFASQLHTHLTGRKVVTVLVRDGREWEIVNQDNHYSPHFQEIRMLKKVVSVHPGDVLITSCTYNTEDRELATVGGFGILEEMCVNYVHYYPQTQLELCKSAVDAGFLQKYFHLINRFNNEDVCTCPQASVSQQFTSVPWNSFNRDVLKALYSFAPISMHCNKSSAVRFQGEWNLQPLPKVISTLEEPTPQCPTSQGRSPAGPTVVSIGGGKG
# Staphylococcus aureus = experiment: Antibacterial activity against Staphylococcus aureus; assay type: functional
# [27] = Inhibition of alkaline phosphatase (unknown origin); design: species or system Homo sapiens
# B16 [28] = experiment: Cytotoxicity against mouse B16 cells; assay type: functional, cell-based
# [29] = Inhibition of inositol monophosphatase (unknown origin); design: species or system Homo sapiens
# Plasmodium falciparum [30] = experiment: Antimalarial activity against chloroquine-resistant Plasmodium falciparum K1; assay type: functional, organism-based
# Escherichia coli [31] = experiment: Inhibition of Escherichia coli W677/JR76.2 2'-O-adenylyltransferase at 55 uM using aminoglycoside and [14C]ATP incubated for 15 mins by liquid scintillation counting based radiochemical assay
# Escherichia coli [32] = experiment: Inhibition of Escherichia coli W677/JR76.2 2'-O-adenylyltransferase at 6.5 uM using aminoglycoside and [14C]ATP incubated for 15 mins by liquid scintillation counting based radiochemical assay
# Escherichia coli [33] = experiment: Inhibition of Escherichia coli W677/JR76.2 2'-O-adenylyltransferase at 650 uM using aminoglycoside and [14C]ATP incubated for 15 mins by liquid scintillation counting based radiochemical assay
# B16 [34] = experiment: Inhibition of DNA synthesis in mouse B16 cells; assay type: functional, cell-based
# B16 [35] = experiment: Antitumor activity against mouse B16 cells implanted in mouse assessed as mouse survival at 2.5 mg/kg/day (reference value: 16 days); assay type: functional
# B16 [36] = experiment: Inhibition of RNA synthesis in mouse B16 cells; assay type: functional, cell-based
# [37] = test system: Human immunodeficiency virus 1; experiment: Antiviral activity against HIV1 assessed as inhibition of viral replication in cell based assay; assay type: functional, organism-based
# B16 [38] = experiment: Inhibition of protein synthesis in mouse B16 cells; assay type: functional, cell-based
# B16 [39] = experiment: Antitumor activity against mouse B16 cells implanted in mouse assessed as mouse survival at 1.3 mg/kg/day (reference value: 16 days); assay type: functional
# B16 [40] = experiment: Antitumor activity against mouse B16 cells implanted in mouse assessed as mouse survival at 1 mg/kg/day (reference value: 16 days); assay type: functional
# Hepatitis B virus [41] = experiment: Antiviral activity against HBV assessed as inhibition of viral replication at 10 uM in cell based assay; assay type: functional
# Plasmodium falciparum [42] = experiment: Antimalarial activity against Plasmodium falciparum infected in mouse; assay type: functional
compound,measurement,setting,value
CC(=O)Nc1ccc(-c2cc(-c3ccc(NC(C)=O)cc3)c(O)c(=O)c(O)c2O)cc1,IC50,[1],0.15 µM
same,IC50,[2],1.7 µM
same,IC50,[3],52 µM
same,IC50,[4],900 µM
CC(C)c1ccc(O)c(=O)cc1 [GAMMA-THUJAPLICIN],MIC,[5],50 µM
same,MIC,[6],50 µM
same,MIC,[7],70 µM
same,MIC,Poria,10 µM
same,MIC,Coniophora puteana,10 µM
CC(C)c1ccc(O)c(=O)c(O)c1 [BETA-THUJAPLICINOL],MIC,[5],100 µM
same,IC50,[8],1.4 µM
same,IC50,[9],0.2 µM
same,MIC,[6],330 µM
same,LD50 at 72 h,[10],155 mg/kg
same,IC50,[11],50 µM
same,IC50,[12],5.9 µM
same,IC50,[13],2.3 µM
same,LD50 at 48 h,[14],175 mg/kg
same,MIC,[7],800 µM
same,inhibition,Escherichia coli [15],31%
same,inhibition,Escherichia coli [16],100%
same,IC50,[17],5.7 µM
same,MIC,Poria,10 µM
same,EC50,Hepatitis B virus [18],5 µM
same,MIC,Coniophora puteana,10 µM
same,IC50,[4],0.2 µM
same,IC50,[19],0.8 µM
O=c1c(O)ccccc1O,IC50,Plasmodium falciparum [20],8.7 µM
same,MIC,Escherichia coli [21],45 µM
same,MIC,Klebsiella pneumoniae,360 µM
same,MIC,Pseudomonas aeruginosa,700 µM
same,MIC,Micrococcus luteus,90 µM
same,inhibition,Escherichia coli [22],100%
same,MIC,Aspergillus fumigatus,730 µM
same,Ki,[23],16 µM
same,inhibition,Escherichia coli [24],8%
same,IC50,MRC5,1.7 µM
same,Ki,[25],23 µM
same,IC50,[26],2 µM
same,MIC,Staphylococcus aureus,90 µM
same,IC50,[27],15 µM
same,IC50,B16 [28],2.2 µM
same,IC50,[29],75 µM
same,IC50,Plasmodium falciparum [30],6.4 µM
same,inhibition,Escherichia coli [31],78%
O=c1c(O)cccc(O)c1O,inhibition,Escherichia coli [32],2%
same,inhibition,Escherichia coli [33],54%
same,IC50,B16 [34],60 µM
same,IC50,[1],40 µM
same,MST,B16 [35],12 days
same,IC50,[2],11 µM
same,IC50,B16 [36],90 µM
same,IC50,[3],3.2 µM
same,IC50,[37],0.3 µM
same,IC50,[26],3 µM
same,IC50,[27],60 µM
same,IC50,B16 [28],0.26 µM
same,IC50,B16 [38],70 µM
same,IC50,[29],8 µM
same,MST,B16 [39],29 days
same,IC50,[4],20 µM
CC(C)c1ccccc(=O)c1O [ALPHA-THUJAPLICIN],IC50,[9],50 µM
same,IC50,[11],> 100 µM
same,IC50,[17],12 µM
same,IC50,[19],33 µM
CO[C@@]12[C@H](COC(N)=O)C3=C(C(=O)C(C)=C(N)C3=O)N1C[C@@H]1N[C@@H]12 [MITOMYCIN],MST,B16 [40],27 days
O=c1c(O)c(O)ccc(-c2cccc([N+](=O)[O-])c2)c1O,IC50,[1],0.7 µM
same,IC50,[2],0.8 µM
same,IC50,[3],2.3 µM
same,IC50,[4],1.3 µM
N#Cc1ccc(-c2ccc(O)c(=O)c(O)c2O)cc1,IC50,[29],4 µM
NCc1ccc(-c2ccc(Cc3cc(=O)n(O)c4ncccc34)cc2)cc1,IC50,[8],0.41 µM
same,IC50,[12],2.5 µM
same,inhibition at 10 µM,Hepatitis B virus [41],93%
CC(=O)Oc1cccc(OC(C)=O)c(=O)c1OC(C)=O,IC50,[1],> 1000 µM
same,IC50,[3],30 µM
same,IC50,[4],> 1000 µM
O=Cc1ccc(-c2ccc(O)c(=O)c(O)c2O)cc1,IC50,[1],0.6 µM
same,IC50,[2],1.2 µM
same,IC50,[3],0.6 µM
same,IC50,[4],12 µM
O=c1c(O)ccc(O)cc1O,IC50,B16 [28],2.5 µM
O=c1cccccc1O [TROPOLONE],IC50,[9],> 100 µM
same,IC50,[11],> 100 µM
same,IC50,[26],2 µM
same,IC50,[27],> 1000 µM
same,IC50,[17],3 µM
same,IC50,[29],> 1000 µM
same,IC50,Plasmodium falciparum [30],> 100 µM
same,IC50,[19],> 100 µM
O=c1ccc(O)ccc1O,IC50,B16 [28],13 µM
O=C(O)c1cc(O)c(O)c(=O)c(O)c1,IC50,Plasmodium falciparum [20],0.05 µM
same,ED50,Plasmodium falciparum [42],< 2 mg/kg
same,IC50,MRC5,360 µM
same,IC50,[29],10 µM
same,IC50,Plasmodium falciparum [30],0.05 µM
C[C@H]1[C@H](OC(=O)CCC(=O)O)O[C@@H]2O[C@@]3(C)CC[C@H]4[C@H](C)CC[C@@H]1[C@@]24OO3 [ARTESUNATE],IC50,Plasmodium falciparum [20],0.0025 µM
same,ED50,Plasmodium falciparum [42],1.7 mg/kg
same,IC50,MRC5,36 µM
same,IC50,Plasmodium falciparum [30],0.01 µM
COc1cc(C(=O)O)cc(O)c(OC)c1=O,IC50,Plasmodium falciparum [30],3.7 µM
O=C1C=CCN(O)C(=O)N1O,Ki,[23],388 µM
same,Ki,[25],53 µM
